# In ChEMBL document CHEMBL1154311, “Isolation of the protein tyrosine phosphatase 1B inhibitory metabolite from the marine-derived fungus Cosmospora sp. SF-5060” (Bioorg Med Chem Lett, 2009):
# Assays:
# [1] = biological target: T1, Tyrosine-protein phosphatase non-receptor type 1 (Homo sapiens, UniProt P18031); assay: Inhibition of PTP1B mediated pNPP hydrolysis
# T1 sequence (P18031 whole entry): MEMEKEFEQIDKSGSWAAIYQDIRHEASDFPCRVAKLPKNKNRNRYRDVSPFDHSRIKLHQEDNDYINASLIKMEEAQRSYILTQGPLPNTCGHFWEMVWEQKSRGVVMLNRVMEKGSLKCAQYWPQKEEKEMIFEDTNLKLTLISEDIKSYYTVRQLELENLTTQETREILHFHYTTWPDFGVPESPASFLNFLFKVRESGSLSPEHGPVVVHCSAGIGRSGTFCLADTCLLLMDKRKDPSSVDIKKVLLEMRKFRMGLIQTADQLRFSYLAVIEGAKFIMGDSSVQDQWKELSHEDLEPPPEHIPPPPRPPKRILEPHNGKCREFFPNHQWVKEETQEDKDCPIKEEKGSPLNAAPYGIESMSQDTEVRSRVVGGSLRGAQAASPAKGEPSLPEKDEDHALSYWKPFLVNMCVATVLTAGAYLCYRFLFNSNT
# [2] = biological target: T2, Tyrosine-protein phosphatase non-receptor type 1 (Homo sapiens) (UniProt P18031); assay: Inhibition of PTP1B mediated pNPP hydrolysis at 178 uM
# T2 sequence (whole entry): T1 sequence (P18031 whole entry)
# [3] = biological target: T1, Tyrosine-protein phosphatase non-receptor type 1; assay: Competitive inhibition of PTP1B mediated pNPP hydrolysis by Lineweaver-Burke plot analysis
# [4] = biological target: T3, Tyrosine-protein phosphatase non-receptor type 2 (Homo sapiens, UniProt P17706); assay: Inhibition of TCPTP
# T3 sequence (P17706 whole entry): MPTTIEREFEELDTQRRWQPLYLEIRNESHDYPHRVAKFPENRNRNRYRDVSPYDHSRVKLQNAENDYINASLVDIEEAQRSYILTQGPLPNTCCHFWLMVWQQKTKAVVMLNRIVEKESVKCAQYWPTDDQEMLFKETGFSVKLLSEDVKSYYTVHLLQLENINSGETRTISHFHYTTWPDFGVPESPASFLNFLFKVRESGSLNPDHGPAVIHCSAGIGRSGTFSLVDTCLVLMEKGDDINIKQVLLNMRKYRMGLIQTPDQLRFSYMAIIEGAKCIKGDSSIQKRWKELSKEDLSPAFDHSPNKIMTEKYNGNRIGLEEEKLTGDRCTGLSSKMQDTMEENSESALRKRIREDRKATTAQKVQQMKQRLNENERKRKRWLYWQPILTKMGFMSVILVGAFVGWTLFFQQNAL
# [5] = biological target: T4, Tyrosine-protein phosphatase non-receptor type 11 (Homo sapiens, UniProt Q06124); assay: Inhibition of SHP-2
# T4 sequence (Q06124 whole entry): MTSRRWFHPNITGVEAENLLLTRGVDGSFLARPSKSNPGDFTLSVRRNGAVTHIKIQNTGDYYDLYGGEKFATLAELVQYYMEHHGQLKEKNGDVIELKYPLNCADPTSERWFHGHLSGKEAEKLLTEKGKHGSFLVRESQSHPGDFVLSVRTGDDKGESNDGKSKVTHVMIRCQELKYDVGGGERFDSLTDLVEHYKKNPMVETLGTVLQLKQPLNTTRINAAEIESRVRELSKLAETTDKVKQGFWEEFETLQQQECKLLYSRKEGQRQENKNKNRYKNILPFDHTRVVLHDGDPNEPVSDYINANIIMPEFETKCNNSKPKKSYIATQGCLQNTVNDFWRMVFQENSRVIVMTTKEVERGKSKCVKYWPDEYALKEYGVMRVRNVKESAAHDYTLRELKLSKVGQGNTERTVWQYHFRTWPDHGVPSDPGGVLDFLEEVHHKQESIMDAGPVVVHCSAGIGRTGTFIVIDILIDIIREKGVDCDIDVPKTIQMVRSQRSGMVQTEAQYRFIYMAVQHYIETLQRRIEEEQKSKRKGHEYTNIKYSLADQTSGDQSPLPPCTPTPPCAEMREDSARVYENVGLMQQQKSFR
# [6] = biological target: Receptor-type tyrosine-protein phosphatase F (Homo sapiens, UniProt P10586); assay: Inhibition of LAR
# Receptor-type tyrosine-protein phosphatase F, sequence (P10586 whole entry): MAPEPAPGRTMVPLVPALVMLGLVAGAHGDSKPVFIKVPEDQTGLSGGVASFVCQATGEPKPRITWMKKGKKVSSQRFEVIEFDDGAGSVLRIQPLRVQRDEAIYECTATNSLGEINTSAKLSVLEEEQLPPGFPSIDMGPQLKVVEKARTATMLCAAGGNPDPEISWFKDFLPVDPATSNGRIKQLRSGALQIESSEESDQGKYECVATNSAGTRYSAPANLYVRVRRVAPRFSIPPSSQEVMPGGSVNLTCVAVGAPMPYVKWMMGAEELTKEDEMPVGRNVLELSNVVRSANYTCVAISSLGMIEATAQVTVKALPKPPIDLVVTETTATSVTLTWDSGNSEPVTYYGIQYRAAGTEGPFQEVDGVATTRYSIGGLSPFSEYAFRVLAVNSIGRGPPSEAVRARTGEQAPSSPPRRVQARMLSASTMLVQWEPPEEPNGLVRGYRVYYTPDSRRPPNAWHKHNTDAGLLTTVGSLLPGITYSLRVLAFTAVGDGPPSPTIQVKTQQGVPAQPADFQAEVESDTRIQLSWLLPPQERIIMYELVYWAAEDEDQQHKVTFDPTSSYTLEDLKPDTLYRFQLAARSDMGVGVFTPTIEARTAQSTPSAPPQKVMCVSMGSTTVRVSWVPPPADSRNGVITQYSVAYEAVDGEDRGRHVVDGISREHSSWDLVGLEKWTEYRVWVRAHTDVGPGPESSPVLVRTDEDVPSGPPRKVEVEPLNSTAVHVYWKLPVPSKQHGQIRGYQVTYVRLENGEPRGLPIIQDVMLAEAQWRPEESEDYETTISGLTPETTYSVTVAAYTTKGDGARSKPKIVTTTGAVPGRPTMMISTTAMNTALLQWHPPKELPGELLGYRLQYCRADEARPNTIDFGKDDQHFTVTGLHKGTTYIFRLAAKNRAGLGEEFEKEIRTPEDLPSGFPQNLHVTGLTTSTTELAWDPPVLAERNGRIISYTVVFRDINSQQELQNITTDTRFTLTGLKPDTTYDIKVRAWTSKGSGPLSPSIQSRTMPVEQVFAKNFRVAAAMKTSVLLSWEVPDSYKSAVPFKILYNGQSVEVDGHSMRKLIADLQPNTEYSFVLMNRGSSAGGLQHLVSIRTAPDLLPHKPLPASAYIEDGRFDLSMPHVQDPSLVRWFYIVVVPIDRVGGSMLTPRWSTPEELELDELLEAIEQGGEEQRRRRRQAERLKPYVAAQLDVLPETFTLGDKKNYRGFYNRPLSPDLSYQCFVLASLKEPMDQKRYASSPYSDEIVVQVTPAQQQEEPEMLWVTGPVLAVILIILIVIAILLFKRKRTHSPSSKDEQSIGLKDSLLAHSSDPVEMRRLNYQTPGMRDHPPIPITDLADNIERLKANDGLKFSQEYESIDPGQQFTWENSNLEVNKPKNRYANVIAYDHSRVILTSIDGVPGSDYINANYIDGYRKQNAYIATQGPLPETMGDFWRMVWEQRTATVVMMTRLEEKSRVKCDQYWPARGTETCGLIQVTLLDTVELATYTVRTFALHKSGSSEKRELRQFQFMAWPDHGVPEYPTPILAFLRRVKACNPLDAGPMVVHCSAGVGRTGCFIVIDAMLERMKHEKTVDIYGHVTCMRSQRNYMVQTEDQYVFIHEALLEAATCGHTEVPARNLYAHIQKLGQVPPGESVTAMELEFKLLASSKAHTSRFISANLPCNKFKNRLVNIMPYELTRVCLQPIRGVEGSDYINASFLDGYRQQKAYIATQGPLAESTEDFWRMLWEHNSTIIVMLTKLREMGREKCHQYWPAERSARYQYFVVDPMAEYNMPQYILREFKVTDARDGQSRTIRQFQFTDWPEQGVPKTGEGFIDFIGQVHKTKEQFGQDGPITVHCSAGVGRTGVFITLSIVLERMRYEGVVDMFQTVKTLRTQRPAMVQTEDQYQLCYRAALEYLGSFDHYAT
# [7] = biological target: T5, Receptor-type tyrosine-protein phosphatase C (Homo sapiens, UniProt P08575); assay: Inhibition of CD45
# T5 sequence (P08575 whole entry): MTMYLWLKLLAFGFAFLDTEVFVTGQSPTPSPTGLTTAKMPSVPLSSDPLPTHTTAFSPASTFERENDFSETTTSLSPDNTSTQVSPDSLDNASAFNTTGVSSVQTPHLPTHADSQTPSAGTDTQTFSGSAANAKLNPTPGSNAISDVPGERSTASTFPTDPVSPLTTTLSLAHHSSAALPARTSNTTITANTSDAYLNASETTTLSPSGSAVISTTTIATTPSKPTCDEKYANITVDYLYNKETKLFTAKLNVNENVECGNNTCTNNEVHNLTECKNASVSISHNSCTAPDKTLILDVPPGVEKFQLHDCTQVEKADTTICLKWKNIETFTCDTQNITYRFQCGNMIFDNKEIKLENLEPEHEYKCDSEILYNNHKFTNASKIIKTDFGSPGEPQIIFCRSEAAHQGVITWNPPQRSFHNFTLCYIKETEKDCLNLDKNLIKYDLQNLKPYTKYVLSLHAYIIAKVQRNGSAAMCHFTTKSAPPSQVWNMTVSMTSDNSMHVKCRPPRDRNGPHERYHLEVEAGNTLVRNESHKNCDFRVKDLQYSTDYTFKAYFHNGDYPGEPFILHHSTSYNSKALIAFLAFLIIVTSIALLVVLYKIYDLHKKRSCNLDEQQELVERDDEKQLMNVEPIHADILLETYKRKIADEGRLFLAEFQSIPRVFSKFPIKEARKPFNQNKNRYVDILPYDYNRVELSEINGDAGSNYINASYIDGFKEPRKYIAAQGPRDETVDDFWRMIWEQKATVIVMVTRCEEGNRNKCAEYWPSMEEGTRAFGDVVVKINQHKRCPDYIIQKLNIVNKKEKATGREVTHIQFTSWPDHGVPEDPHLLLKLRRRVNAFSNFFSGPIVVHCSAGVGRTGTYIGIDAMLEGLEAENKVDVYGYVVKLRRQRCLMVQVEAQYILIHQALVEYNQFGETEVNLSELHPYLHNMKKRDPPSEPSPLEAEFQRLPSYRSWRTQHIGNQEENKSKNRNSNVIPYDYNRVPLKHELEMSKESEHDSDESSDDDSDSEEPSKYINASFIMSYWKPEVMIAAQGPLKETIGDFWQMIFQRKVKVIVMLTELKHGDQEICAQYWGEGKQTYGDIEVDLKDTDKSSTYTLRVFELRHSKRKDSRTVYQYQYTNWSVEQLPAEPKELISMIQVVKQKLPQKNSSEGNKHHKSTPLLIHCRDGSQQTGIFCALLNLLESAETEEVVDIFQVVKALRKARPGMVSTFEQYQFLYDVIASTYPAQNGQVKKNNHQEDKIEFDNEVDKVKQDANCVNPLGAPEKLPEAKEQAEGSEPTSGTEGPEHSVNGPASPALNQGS
SMILES,IC50 ([1]; read-out: IC50) [nM],IC50 [1],also measured
CCCCCCCCCCCCCCCc1cc(O[C@@H]2O[C@H](CO)[C@@H](O)[C@H](O)[C@H]2O)cc(O)c1C(=O)Oc1cc(C)c(C(=O)OC)c(O)c1,17000,,
CCCCCCCCCCCCCCCc1cc(O[C@@H]2O[C@H](CO)[C@@H](O)[C@H](O)[C@H]2O)cc(O)c1C(=O)O,590,Dose-dependent effect,
Cc1cc(O)cc(O)c1C(=O)O,,,inhibition [2]: 45%

# Second part, led by results:
IC50 ([1]; read-out: IC50) [nM],IC50 [1],SMILES,also measured
220,,CCCCCCCCCCCCCCCc1cc(O)cc(O)c1C(=O)Oc1cc(C)c(C(=O)O)c(O)c1,
190,Dose-dependent effect,CCCCCCCCCCCCCCCc1cc(O[C@@H]2O[C@H](CO)[C@@H](O)[C@H](O)[C@H]2O)cc(O)c1C(=O)Oc1cc(C)c(C(=O)O)c(O)c1 [AQUASTATIN A],Ki [3]: 100 nM; IC50 [4]: 510 nM; IC50 [5]: > 44000 nM; IC50 [6]: > 44000 nM; IC50 [7]: > 44000 nM
